What was measured:
Assay in all cases: ELISA of […]([…])-DHET diol product
Format in all cases: biochemical
Conditions in all cases: 6 or 12 uM EET, 100 ug enzyme in 100 ul PBS, 37 C, 1.5 h
PfEH2 [1] = biological target: T1, PfEH2 (Plasmodium falciparum, UniProt Q8IM75)
T1 construct: gene PF3D7_1401300; borders of the construct only in supplement

PfEH1 = biological target: T2, PfEH1 (Plasmodium falciparum, UniProt Q9Y013)
T2 construct: gene PF3D7_0301300; borders of the construct only in supplement
T2 sequence (Q9Y013 entry or part of it): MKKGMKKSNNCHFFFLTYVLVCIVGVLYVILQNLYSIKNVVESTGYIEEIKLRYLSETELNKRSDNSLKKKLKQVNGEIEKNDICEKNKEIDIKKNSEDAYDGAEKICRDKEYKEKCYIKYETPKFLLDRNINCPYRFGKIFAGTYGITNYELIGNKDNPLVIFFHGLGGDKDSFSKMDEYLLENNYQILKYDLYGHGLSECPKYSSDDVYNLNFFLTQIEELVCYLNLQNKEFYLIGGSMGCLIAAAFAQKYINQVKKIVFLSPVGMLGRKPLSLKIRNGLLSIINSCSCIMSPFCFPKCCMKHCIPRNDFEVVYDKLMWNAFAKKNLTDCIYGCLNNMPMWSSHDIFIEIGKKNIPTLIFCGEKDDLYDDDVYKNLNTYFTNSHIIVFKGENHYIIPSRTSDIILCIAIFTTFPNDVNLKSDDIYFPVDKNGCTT

PfEH2 [2] = biological target: T1, PfEH2; remark: listed apart in the source

T1 sequence (Q8IM75 entry or part of it): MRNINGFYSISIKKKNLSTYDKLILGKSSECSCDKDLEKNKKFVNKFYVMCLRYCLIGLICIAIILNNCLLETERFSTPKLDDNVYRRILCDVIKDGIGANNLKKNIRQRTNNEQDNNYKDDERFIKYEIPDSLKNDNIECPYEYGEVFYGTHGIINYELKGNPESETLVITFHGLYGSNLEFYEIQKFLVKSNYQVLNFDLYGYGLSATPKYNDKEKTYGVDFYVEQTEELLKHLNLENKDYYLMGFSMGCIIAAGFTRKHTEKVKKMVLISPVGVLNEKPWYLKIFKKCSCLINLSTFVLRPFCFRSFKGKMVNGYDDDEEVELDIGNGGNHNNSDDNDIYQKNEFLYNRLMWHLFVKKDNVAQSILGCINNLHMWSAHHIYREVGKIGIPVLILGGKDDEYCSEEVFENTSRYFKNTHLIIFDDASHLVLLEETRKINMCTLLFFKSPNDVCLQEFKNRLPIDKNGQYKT

| SMILES | ELISA of 11(12)-DHET diol product (PfEH2 [1]) | ELISA of 11(12)-DHET diol product (PfEH1) | ELISA of 14(15)-DHET diol product (PfEH2 [2]) |
| --- | --- | --- | --- |
| CCCCC/C=C\CC1OC1C/C=C\C/C=C\CCCC(=O)O (stereo not drawn) [11(12)-EET] | Both recombinant PfEH1 and PfEH2 enzymes increased the formation of the diol product | Both recombinant PfEH1 and PfEH2 enzymes increased the formation of the diol product | – |
| CCCCCC1OC1C/C=C\C/C=C\C/C=C\CCCC(=O)O (stereo not drawn) [14(15)-EET] | – | – | Both recombinant PfEH1 and PfEH2 enzymes increased the formation of the diol product |
